One experiment deals with IFN‐γ and IL‐17A. Put plainly: Cytokine assay (ELISA) in serum after vaccination. The experiment is classed as in vivo, BALB/c mice. The settings on record: day 7, compared to Control and Cisplatin groups. The source says: (§1) Encouraged by the excellent performance of Os2 in inducing ICD both in vitro and in vivo, we decided to further evaluate the antitumor immune response following vaccination. A key feature of ICD is its ability to initiate antigen‐specific adaptive immune responses. To assess this, we measured the immune cell response in the spleens and the cytokine levels in the serum of mice 7 days after vaccination (Figures 6A and S28).
PerCp Cy5.5 (Biolegend, Catalog no.100217, cl one 17A2), anti -CD4- Kiravia 520 (Biolegend, Catalog no. 100477, clone GK1.5), anti-CD8a-BUV496 (Ther mo F i s h er […]
transcription factor staini ng, the cells were treat ed with True- Nuclear™ Transcription Factor Buffer Set (Biolegend, Catalog no. 424401) after surface staining an d re-stained with fluorescen ce-labeled anti-IFNγ-PE (Biolegend, Catalog no. 505807, clone XMG1.2), anti-FoxP3- BV421 (Biolegend, Catalog no.126419, clone MF-14) and Zombie NIR™Fixable Viability Kit( Biolegend,Catalog no.423105).
Serum samples were obt ained from the mice on day 7 after treatment. Cytokine was detected using ELISA kits according to the manufacturer ’s instructions: IFN-γ (Biolegend, Catalog no. 430807) and IL -17A ( Bi olegend, Catalog no.432507).
All the analysis data are given as mean ± SEM. […]

Experiment [1] deals with HMGB‐1. The experiment in a line: Immunofluorescence staining of HMGB-1 (release) in MCA205 cells. The experiment is classed as cell-based, mouse. Particulars: MCA205, PS at IC50, illumination at 740 nm. How it is done:
We then used the corresponding IC50 values of each PS to evaluate their in vitro ICD induction on MCA205 cells. […] As a result, we chose Ce6 as the positive control for our subsequent in vivo tests on MCA205 cells.
(§2) Scientific, Catalog no.15 5411) at a d ensity of 8,00 0 cells p er well and cultu red fo r 24 h at 37 °C with 5 % CO2. T he cells wer e then treated with a solution of the compounds at a concentration corresponding to the IC50 for 4 h. After refreshing the medium, cells were subjected to irradiation and incubated for an additional 12 h. Subsequently, the cells were fix ed with 4% paraformaldehyde and immunostained with Anti- Calreticulin antibody (Abcam, Catalog no. ab2907) diluted 1/1000 at 4 °C overnight. Cells were then washed three times with PBS, treated with Goat Anti- Rabbit IgG H&L (Alexa […]
(§3) temperature in the dark, washed in PBS and treat ed with 10 µg/mL Hoechst for 15 min.
(§4) After a final wash, cells were analyzed by confocal microscopy as det ailed above.
(§5) Immunofluorescence st aining of HMGB-1
CT26 or MCA205 cells were seeded in Lab -Te k ® Chambered Coverglass System (Thermo Fisher Scientific, Catalog no.155411) at a density of 8,000 cells per well and cultured for 24 h at 37 °C with 5% CO2. The cells were then treated with a solution of the compounds at a concentration corresponding to the IC50 for 4 h. […]

The test system of experiment [2] is HMGB‐1. Put plainly: Immunofluorescence staining of HMGB-1 (release) in CT26 cells. The settings on record: CT26, compounds at IC50, illumination at 740 and 770 nm. The experiment is classed as cell-based, mouse. The method, then: as §2, §3, §4, §5
CT26 or MCA205 cells were seeded in Lab -Te k ® Chambered Coverglass System (Thermo Fisher Scientific, Catalog no.155411) at a density of 8,000 cells per well and cultured for 24 h at 37 °C with 5% CO2. The cells were then treated with a solution of the compounds at a concentration corresponding to the IC50 for 4 h. After refreshing the medium, cells were subjected to irradiation and incubated for an additional 12 h.
Subsequently, the cells were fixed with 4% paraformaldehyde, perm eabilized with 0.2% Triton X-100 and immunostained using anti-HMGB1 antibody [EPR3507] […]

The test system of experiment [3] is immune cells in the spleens. The experiment in a line: Flow cytometry analysis of immune cells in spleens after vaccination. The experiment is classed as in vivo, BALB/c mice. The settings on record: spleen, 7 days after vaccination.
Excerpt: as §1
The BALB/c female mice were randomly divided into 4 groups which were named as Control group, Cisplatin group, Ce6 group and Os2 group. CT26-luc cells were tre ated in vitro with 600 µM Cisplatin in the dark, 6.5 µ M Ce6 or 1.8 µM Os2 upon 740 nm LED light irradiation (60 min, 12.6 J cm-2) following the methods described above. […]
The BALB/c female mice were randomly divided into 4 groups with each group containing 3 mice, which were named as Control group, Cisplatin group, Ce6 group and Os2 group. […] For surfac e marker analysis, the cells were stained with fluorescence- l abeled anti-C D45-AF532 (Thermo Fisher Scientific Inc., Catalog no. 58- 0451- 80, clone 30-F 11 ), anti-CD3- […]
Serum samples were obt ained from the mice on day 7 after treatment. Cytokine was detected using ELISA kits according to the manufacturer ’s instructions: IFN-γ (Biolegend, Catalog no. 430807) and IL -17A ( Bi olegend, Catalog no.432507). […]
In general terms: In flow cytometry, cells or beads pass a laser one at a time.

As for `C=Cc1c(C)c2cc3nc(c(CC(=O)O)c4[nH]c(cc5nc(cc1[nH]2)C(C)=C5CC)c(C)c4C(=O)O)[C@@H](CCC(=O)O)[C@@H]3C` [Ce6, chlorin e6], in the experiment with IFN‐γ and IL‐17A, the “IFN‐γ level in serum” value is given as “significant increase” and the “IL‐17A level in serum” value was “significant increase”. Also, in the experiment on HMGB‐1 [1], the “HMGB‐1 release” value is “significantly promoted”. The “HMGB‐1 release” value in the experiment on HMGB‐1 [2] is recorded as “a minority”. In experiment [3], the “Activated CD8^+ T cells, times that of Control and Cisplatin groups” value was “around twice higher”; the “Cytotoxic CD8^+ T cells, times higher than Control and Cisplatin groups” value is “more than 10”.

(Values after paper PMC13327620, “A Deep‐Red‐Absorbing Osmium(II) Complex as a Photosensitizer for Photodynamic Therapy Inducing Immunogenic Cell Death” (Angewandte Chemie (International Ed. in English), 2026).)
